Assay results from paper PMC8822754, “Chloride intracellular channel 1 activity is not required for glioblastoma development but its inhibition dictates glioma stem cell responsivity to novel biguanide derivatives” (Journal of Experimental & Clinical Cancer Research : CR, 2022).

Molecular target: Chloride intracellular channel-1 (CLIC1) (Homo sapiens, UniProt O00299)
Assay: microscale thermophoresis (also CLIC1 current block by patch clamp in GBM3 GSCs)
Type: binding
Design: recombinant CLIC1, NHS dye-labelled

Kd	Structure (SMILES)
15.6 ± 1.9 µM	COc1ccc(/N=C(\N)N=C(N)N)cc1 [Q48]
1900 ± 500 µM	COc1ccc(N2C(N)=NC(N)=NC2(C)C)cc1 [Q54]
